Test results taken from patent US9738634B2, “Heterocyclic amide compound and herbicide” (SYNGENTA PARTICIPATIONS AG, priority 2013, dated 2017).

What was measured:
Type in all cases: in vivo
Conditions in all cases: treatment dosage 320 g/ha
[1] = test system: black-grass; test: Test Example 4: weedkilling efficacy by foliar treatment; H: black-grass
Method in brief: (§1)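 Seeds are spot-sown into sterilized diluvial soil and covered with about 1.5 cm of soil. After 14 days' greenhouse growth at 25 to 30° C, plants are sprayed on stems and leaves with diluted emulsion at the stated g/ha rate, then scored at 3 weeks.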

[2] = test system: bulrush; test: Test Example 2: weedkilling efficacy, growth period weed treatment in the submerged state; B: bulrush
Method in brief: (§2)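 Seedlings at 1-2 leaves in 4 cm-deep submerged alluvial soil received emulsion formulations on the water surface, dosed per hectare; effects were judged 3 weeks on.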

[3] = test system: wheat; test: Test Example 4: foliar treatment, effect on crop; e: wheat
Method in brief: as §1

[4] = test system: crabgrass; test: Test Example 4: weedkilling efficacy by foliar treatment; D: crabgrass
Method in brief: as §1

[5] = test system: oval-leafed pondweed; test: Test Example 2: weedkilling efficacy, growth period weed treatment in the submerged state; C: oval-leafed pondweed
Method in brief: as §2

[6] = test system: crabgrass; test: Test Example 3: weedkilling efficacy through soil treatment; D: crabgrass
Method in brief: (§3)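 Crop and weed responses were judged three weeks after a uniform surface spray of the water-diluted emulsion at the given g/ha rate. Seeds sat beneath about 1.5 cm of sterilized diluvial soil, and boxes stood in a greenhouse at 25 to 30° C.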

[7] = test system: catchweed; test: Test Example 3: weedkilling efficacy through soil treatment; O: catchweed
Method in brief: as §3

[8] = test system: redroot pigweed; test: Test Example 3: weedkilling efficacy through soil treatment; L: redroot pigweed
Method in brief: as §3

[9] = test system: beet; test: Test Example 4: foliar treatment, effect on crop; f: beet
Method in brief: as §1

[10] = test system: fig-leafed goosefoot; test: Test Example 3: weedkilling efficacy through soil treatment; M: fig-leafed goosefoot
Method in brief: as §3

[11] = test system: birds-eye speedwell; test: Test Example 4: weedkilling efficacy by foliar treatment; p: birds-eye speedwell
Method in brief: as §1

[12] = test system: green foxtail; test: Test Example 3: weedkilling efficacy through soil treatment; E: green foxtail
Method in brief: as §3

[13] = test system: birds-eye speedwell; test: Test Example 3: weedkilling efficacy through soil treatment; p: birds-eye speedwell
Method in brief: as §3

[14] = test system: barnyard grass; test: Test Example 3: weedkilling efficacy through soil treatment; F: barnyard grass
Method in brief: as §3

[15] = test system: directly sown rice; test: Test Example 4: foliar treatment, effect on crop; b: directly sown rice
Method in brief: as §1

[16] = test system: rapeseed; test: Test Example 4: foliar treatment, effect on crop; g: rapeseed
Method in brief: as §1

[17] = test system: common wind-grass; test: Test Example 3: weedkilling efficacy through soil treatment; J: common wind-grass
Method in brief: as §3

[18] = test system: black-grass; test: Test Example 3: weedkilling efficacy through soil treatment; H: black-grass
Method in brief: as §3

[19] = test system: wild oat; test: Test Example 3: weedkilling efficacy through soil treatment; G: wild oat
Method in brief: as §3

[20] = test system: corn; test: Test Example 3: soil treatment, effect on crop; c: corn
Method in brief: as §3

[21] = test system: Italian ryegrass; test: Test Example 3: weedkilling efficacy through soil treatment; I: Italian ryegrass
Method in brief: as §3

[22] = test system: chickweed; test: Test Example 4: weedkilling efficacy by foliar treatment; N: chickweed
Method in brief: as §1

[23] = test system: Italian ryegrass; test: Test Example 4: weedkilling efficacy by foliar treatment; I: Italian ryegrass
Method in brief: as §1

[24] = test system: barnyard grass; test: Test Example 2: weedkilling efficacy, growth period weed treatment in the submerged state; A: barnyard grass
Method in brief: as §2

[25] = test system: Indian mallow; test: Test Example 3: weedkilling efficacy through soil treatment; K: Indian mallow
Method in brief: as §3

[26] = test system: chickweed; test: Test Example 3: weedkilling efficacy through soil treatment; N: chickweed
Method in brief: as §3

[27] = test system: transplanted rice; test: Test Example 1: preemergent weed treatment in the submerged state, effect on crop; a: transplanted rice
Method in brief: (§4)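 Submerged pre-emergence treatment, water-surface application of compound emulsion at g/ha dosages; 4 cm flooded alluvial soil, weeds sown and 2.5-leaf rice transplanted same day. Rated after 3 weeks, greenhouse.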

[28] = test system: oval-leafed pondweed; test: Test Example 1: weedkilling efficacy, preemergent weed treatment in the submerged state; C: oval-leafed pondweed
Method in brief: as §4

[29] = test system: green foxtail; test: Test Example 4: weedkilling efficacy by foliar treatment; E: green foxtail
Method in brief: as §1

[30] = test system: wild oat; test: Test Example 4: weedkilling efficacy by foliar treatment; G: wild oat
Method in brief: as §1

[31] = test system: soybean; test: Test Example 4: foliar treatment, effect on crop; d: soybean
Method in brief: as §1

[32] = test system: catchweed; test: Test Example 4: weedkilling efficacy by foliar treatment; O: catchweed
Method in brief: as §1

[33] = test system: barnyard grass; test: Test Example 1: weedkilling efficacy, preemergent weed treatment in the submerged state; A: barnyard grass
Method in brief: as §4

[34] = test system: wheat; test: Test Example 3: soil treatment, effect on crop; e: wheat
Method in brief: as §3

[35] = test system: redroot pigweed; test: Test Example 4: weedkilling efficacy by foliar treatment; L: redroot pigweed
Method in brief: as §1

[36] = test system: barnyard grass; test: Test Example 4: weedkilling efficacy by foliar treatment; F: barnyard grass
Method in brief: as §1

[37] = test system: beet; test: Test Example 3: soil treatment, effect on crop; f: beet
Method in brief: as §3

[38] = test system: fig-leafed goosefoot; test: Test Example 4: weedkilling efficacy by foliar treatment; M: fig-leafed goosefoot
Method in brief: as §1

[39] = test system: directly sown rice; test: Test Example 3: soil treatment, effect on crop; b: directly sown rice
Method in brief: as §3

[40] = test system: soybean; test: Test Example 3: soil treatment, effect on crop; d: soybean
Method in brief: as §3

[41] = test system: common wind-grass; test: Test Example 4: weedkilling efficacy by foliar treatment; J: common wind-grass
Method in brief: as §1

[42] = test system: bulrush; test: Test Example 1: weedkilling efficacy, preemergent weed treatment in the submerged state; B: bulrush
Method in brief: as §4

[43] = test system: Indian mallow; test: Test Example 4: weedkilling efficacy by foliar treatment; K: Indian mallow
Method in brief: as §1

[44] = test system: corn; test: Test Example 4: foliar treatment, effect on crop; c: corn
Method in brief: as §1

[45] = test system: rapeseed; test: Test Example 3: soil treatment, effect on crop; g: rapeseed
Method in brief: as §3

## CC1=C(c2ccccc2)C(=O)N(C(C)(C)C(=O)Nc2cc(C(F)F)cc(Cl)n2)CO1 [B-2-44]
[1]
  H (black-grass) weedkilling efficacy grade: 5 (weed kill ratio 90% or more, (practically complete withering))
[2]
  B (bulrush) weedkilling efficacy grade: 5 (weed kill ratio 90% or more, (practically complete withering))
[3]
  e (wheat) effect on crop grade: 4 (weed kill ratio 70% or more, less than 90%)
[4]
  D (crabgrass) weedkilling efficacy grade: 4 (weed kill ratio 70% or more, less than 90%)
[5]
  C (oval-leafed pondweed) weedkilling efficacy grade: 5 (weed kill ratio 90% or more, (practically complete withering))
[6]
  D (crabgrass) weedkilling efficacy grade: 5 (weed kill ratio 90% or more, (practically complete withering))
[7]
  O (catchweed) weedkilling efficacy grade: 0 (weed kill ratio 5% or less (practically no effect))
[8]
  L (redroot pigweed) weedkilling efficacy grade: 0 (weed kill ratio 5% or less (practically no effect))
[9]
  f (beet) effect on crop grade: 3 (weed kill ratio 40% or more, less than 70%)
[10]
  M (fig-leafed goosefoot) weedkilling efficacy grade: 3 (weed kill ratio 40% or more, less than 70%)
[11]
  P (birds-eye speedwell) weedkilling efficacy grade: 5 (weed kill ratio 90% or more, (practically complete withering))
[12]
  E (green foxtail) weedkilling efficacy grade: 5 (weed kill ratio 90% or more, (practically complete withering))
[13]
  P (birds-eye speedwell) weedkilling efficacy grade: 4 (weed kill ratio 70% or more, less than 90%)
[14]
  F (barnyard grass) weedkilling efficacy grade: 5 (weed kill ratio 90% or more, (practically complete withering))
[15]
  b (directly sown rice) effect on crop grade: 3 (weed kill ratio 40% or more, less than 70%)
[16]
  g (rapeseed) effect on crop grade: 5 (weed kill ratio 90% or more, (practically complete withering))
[17]
  J (common wind-grass) weedkilling efficacy grade: 5 (weed kill ratio 90% or more, (practically complete withering))
[18]
  H (black-grass) weedkilling efficacy grade: 5 (weed kill ratio 90% or more, (practically complete withering))
[19]
  G (wild oat) weedkilling efficacy grade: 2 (weed kill ratio 20% or more, less than 40%)
[20]
  c (corn) effect on crop grade: 0 (weed kill ratio 5% or less (practically no effect))
[21]
  I (Italian ryegrass) weedkilling efficacy grade: 5 (weed kill ratio 90% or more, (practically complete withering))
[22]
  N (chickweed) weedkilling efficacy grade: 4 (weed kill ratio 70% or more, less than 90%)
[23]
  I (Italian ryegrass) weedkilling efficacy grade: 5 (weed kill ratio 90% or more, (practically complete withering))
[24]
  A (barnyard grass) weedkilling efficacy grade: 5 (weed kill ratio 90% or more, (practically complete withering))
[25]
  K (Indian mallow) weedkilling efficacy grade: 0 (weed kill ratio 5% or less (practically no effect))
[26]
  N (chickweed) weedkilling efficacy grade: 3 (weed kill ratio 40% or more, less than 70%)
[27]
  a (transplanted rice) effect on crop grade: 5 (weed kill ratio 90% or more, (practically complete withering))
[28]
  C (oval-leafed pondweed) weedkilling efficacy grade: 5 (weed kill ratio 90% or more, (practically complete withering))
[29]
  E (green foxtail) weedkilling efficacy grade: 5 (weed kill ratio 90% or more, (practically complete withering))
[30]
  G (wild oat) weedkilling efficacy grade: 3 (weed kill ratio 40% or more, less than 70%)
[31]
  d (soybean) effect on crop grade: 4 (weed kill ratio 70% or more, less than 90%)
[32]
  O (catchweed) weedkilling efficacy grade: 5 (weed kill ratio 90% or more, (practically complete withering))
[33]
  A (barnyard grass) weedkilling efficacy grade: 5 (weed kill ratio 90% or more, (practically complete withering))
[34]
  e (wheat) effect on crop grade: 1 (weed kill ratio 5% or more, less than 20%)
[35]
  L (redroot pigweed) weedkilling efficacy grade: 3 (weed kill ratio 40% or more, less than 70%)
[36]
  F (barnyard grass) weedkilling efficacy grade: 4 (weed kill ratio 70% or more, less than 90%)
[37]
  f (beet) effect on crop grade: 3 (weed kill ratio 40% or more, less than 70%)
[38]
  M (fig-leafed goosefoot) weedkilling efficacy grade: 3 (weed kill ratio 40% or more, less than 70%)
[39]
  b (directly sown rice) effect on crop grade: 3 (weed kill ratio 40% or more, less than 70%)
[40]
  d (soybean) effect on crop grade: 0 (weed kill ratio 5% or less (practically no effect))
[41]
  J (common wind-grass) weedkilling efficacy grade: 5 (weed kill ratio 90% or more, (practically complete withering))
[42]
  B (bulrush) weedkilling efficacy grade: 5 (weed kill ratio 90% or more, (practically complete withering))
[43]
  K (Indian mallow) weedkilling efficacy grade: 4 (weed kill ratio 70% or more, less than 90%)
[44]
  c (corn) effect on crop grade: 1 (weed kill ratio 5% or more, less than 20%)
[45]
  g (rapeseed) effect on crop grade: 4 (weed kill ratio 70% or more, less than 90%)
